{
  "source": "patent US20230391841A1",
  "about": "“MACROCYCLIC PEPTIDES” (Herantis Pharma OYJ, priority 2019, published 2023)",
  "key": {"[1]": {"system": "dopaminergic TH-positive neurons injured with MPP+", "assay": "Neuroprotective effect on dopaminergic TH-positive neurons injured with MPP+ (primary mesencephalic culture)", "format": "cell-based, rat", "details": "MPP+ injured TH-positive neurons", "procedure": "Neuroprotective effects of compounds 1-26 (SEQ ID NO: 1-26) were tested in an in vitro model in which primary cultures of rat embryonic mesencephalic neurons were stressed with MPP+ , the active metabolite of neurotoxin 1-methyl-4-phenyl-1,2,3,6-tetrahydropyridine (MPTP). MPP+ kills dopaminergic (TH-positive) neurons via a variety of toxic mechanisms, including mitochondrial dysfunction, generation of peroxynitrite, oxidative stress, ER stress and induction of apoptosis.\nCulture of mesencephalic neurons. Rat dopaminergic neurons were cultured as described by Visanji et al., 2008. Briefly, the midbrains obtained from 15-day-old rat embryos (Janvier, France) were dissected, and the ventral portion of the mesencephalic flexure, a region of the developing brain rich in dopaminergic neurons, was used for the cell preparations. The midbrain cells were dissociated by trypsinization for 20 min at 37° C. (solution at a final concentration of 0.05% trypsin and 0.02% EDTA). The reaction was stopped by adding Dulbecco's modified Eagle's medium (DMEM) containing DNAase I grade II (0.5 mg/mL) and 10% of fetal calf serum (FCS). Cells were then mechanically dissociated by 3 passages through a 10 ml pipette. Cells were then centrifuged at 180×g for 10 min at +4° C. on a layer of BSA (3.5%) in L15 medium. The cell pellets were re-suspended in a defined culture serum-free medium consisting of Neurobasal (Invitrogen) supplemented with B27 (2%), L-glutamine (2 mM) and 2% of PS solution and 1Ong/ml of Brain-derived neurotrophic factor (BDNF) and 1 ng/mL of Glial-Derived Neurotrophic Factor (GDNF). Viable cells were counted in a Neubauer cytometer using the trypan blue exclusion test. The cells were seeded at a density of 40 000 cells/well in 96 well-plates (pre-coated with poly-L-lysine) and maintained in a humidified incubator at 37° C. in 5% CO2/95% air atmosphere. Half of the medium was changed every 2 days with fresh medium. On 96-wells plates, only 60 wells are used. To avoid any edge effect, the first and last lines and columns were not used for culture and were filled with sterile water.\nCDNF as well as linear and macrocyclic compounds […] (SEQ ID NOs: 1-26) were tested. On day 6 of culture, the compounds were dissolved in culture medium and then pre-is incubated with mesencephalic neurons for 4 hours before the MPP+ application. Four hours after the preincubation of the compounds, MPP+ was added to a final concentration of 4 pM, diluted in control medium still in presence of compounds for 48 h.\n48 h after intoxication, the cells were fixed by a solution of 4% paraformaldehyde in PBS, pH 7.3 for 20 min at room temperature. The cells were washed twice in PBS, and then permeabilized and non-specific sites were blocked with a solution of PBS containing 0.1% of saponin and 1% FCS for 15 min at room temperature. Next, the cells were incubated with (a) a monoclonal antibody anti-Tyrosine Hydroxylase (TH) produced in mouse at dilution of 1:10000 and with (b) a polyclonal antibody anti-alpha-synuclein (α-syn) antibody produced in rabbit at dilution of 1:400 in PBS containing 1% FCS, 0.1% saponin, for 2 h at room temperature.\n48 h after intoxication, the cell culture supernatant was removed, and the cells fixed by a solution of 4% paraformaldehyde in PBS, pH 7.3 for 20 min at room temperature. The cells were washed twice in PBS, and then permeabilized and non-specific sites were blocked with a solution of PBS containing 0.1% of saponin and 1% FCS for 15 min at room temperature. Then, the cells were incubated with a) a monoclonal Anti-Tyrosine Hydroxylase (TH) antibody produced in mouse at dilution of 1:10000 in PBS containing 1% FCS, 0.1% saponin, for 2 hours at room temperature, and b) a polyclonal anti-postsynaptic density protein-95 (PSD-95) antibody produced in rabbit at dilution of 1:200 in PBS containing 1% FCS, 0.1% saponin, for 2 h at room temperature. This antibody stains specifically synapses. […]"}, "rat hepatocytes": {"system": "rat hepatocytes", "assay": "In vitro metabolic stability in rat hepatocytes", "format": "in vitro ADME", "details": "1 μM, 37° C., up to 60 min", "procedure": "The linear or macrocyclic compounds 1-14 and 23-26 (SEQ ID NOs: […]) were incubated in concentration 1 μM with pooled cryopreserved rat hepatocytes (Sprague-Dawley, male; 400 pl, 1.0 million viable cells/ml for compounds 1-8, 11-12 and 23-26 or 100 μl, 0.1 million viable cells/ml for compounds 9-10 and 13-14) for different time points (0, 10, 20, 40 or 60 min) at 37° C. The cell density and viability were determined by trypan blue exclusion method. The incubation was terminated by acetonitrile. The collected samples were centrifuged for 20 min at 2272×g and analyzed. The samples were analyzed is by UHPLC/PDA with high resolution mass spectrometry (QE-Orbitrap-MS on DDI mode) (compounds 1-8, 11-12 and 23-26) or HHPLC-ToF mass spectrometry (for compounds 9-and 13-14) to monitor disappearance of the compound. Verapramil 1 μM was used as a disappearance rate control. The analytical method was optimized by using the parent compounds for optimum chromatographic properties (peak shape and retention) and mass spectrometric ionization. The Ion chromatograms were extracted from the total ion chromatograms using calculated monoisotopic accurate masses with 5 mDa window. Disappearance was based on LC/MS peak areas, marking 0 min as 100%. The first-order rate constants k (min-1) of the metabolism were obtained from the slope of time versus logarithm (% of remaining compound) plot using Excel software. The in vitro half-life (t1/2) of study compound is defined as: t1/2In2/k. Calculated half-life is based on compound disappearance in rat liver hepatocytes."}, "human hepatocytes": {"system": "human hepatocytes", "assay": "In vitro metabolic stability in human hepatocytes", "format": "in vitro ADME", "details": "1 μM, 37° C., up to 60 min", "procedure": "The linear or macrocyclic compounds 1-8, 11-14 and 23-26 (SEQ ID NOs: 1-8, 11-14 and 23-26) were incubated in concentration 1 μM with pooled cryopreserved human hepatocytes (mixed gender; 400 pl, 1.0 million viable cells/ml) for different time points (0, 20, 40 or 60 min) at 37° C. The cell density and viability were determined by trypan blue is exclusion method. The incubation was terminated by acetonitrile. The collected samples were centrifuged for 20 min at 2272×g and analyzed. The samples were analyzed by UPLC/PDA with high resolution mass spectrometry (QE-Orbitrap-MS on DDI mode) to monitor disappearance of the compound. Verapramil 1 μM was used as a disappearance rate control. The analytical method was optimized by using the parent compounds for optimum chromatographic properties (peak shape and retention) and mass spectrometric ionization. The Ion chromatograms were extracted from the total ion chromatograms using calculated monoisotopic accurate masses with 5 mDa window. Disappearance was based on LC/MS peak areas, marking 0 min as 100%. The first-order rate constants k (min-1) of the metabolism were obtained from the slope of time versus logarithm (% of remaining compound) plot using Excel software. The in vitro half-life (t1/2) of study compound is defined as: t1/2In2/k. Calculated half-life is based on compound disappearance in human liver hepatocytes."}},
  "note": "Bridge positions count the residues as written; N and C are the ends. Peptide text beside a SMILES is read from it.",
  "data": [
    {"smiles": "CC[C@H](C)[C@@H]1NC(=O)[C@H](CCC(N)=O)NC(=O)[C@H](CCCCN)NC(=O)[C@H](CC(C)C)NC(=O)[C@H](CCC(=O)O)NC(=O)[C@H](C)NC(=O)[C@H](C(C)C)NC(=O)[C@H](CCCNC(=N)N)NC(=O)[C@H](CCSC)NC(=O)[C@H](CCCCN)NC(=O)[C@H](CCCNC(=N)N)NC(=O)[C@H](CC(C)C)NC(=O)[C@H](CC(=O)O)NC(=O)[C@H](C(C)C)NC(=O)[C@H](CCC(=O)O)NC(=O)[C@H](C)NC(=O)[C@@H]2CSSC[C@H](NC(=O)[C@H](CCC(=O)O)NC(=O)[C@H](CCC(=O)O)NC(=O)CNC(=O)[C@H](Cc3c[nH]c4ccccc34)NC(=O)[C@H](CO)NC(=O)[C@H](Cc3c[nH]cn3)NC(=O)[C@H](CC(C)C)NC1=O)C(=O)N[C@@H](CCCNC(=N)N)C(=O)N[C@@H](C)C(=O)N2", "note": "[Compound 2] (cyclo(ACAEVDLRKMRVAELKQILHSWGEECR); disulfide 2-26)", "values": [
      {"measurement": "potency of macrocyclic peptide versus its linear counterpart", "setting": "[1]", "value": "comparable"},
      {"measurement": "stability in rat hepatocytes as compared to linear counterpart", "setting": "rat hepatocytes", "value": "significantly improved stability"},
      {"measurement": "stability in human hepatocytes as compared to linear counterpart", "setting": "human hepatocytes", "value": "significantly improved stability"}
    ]},
    {"smiles": "CC[C@H](C)[C@@H]1NC(=O)[C@H](CCC(N)=O)NC(=O)[C@H](CCCCN)NC(=O)[C@H](CC(C)C)NC(=O)[C@H](CCC(=O)O)NC(=O)[C@H](C)NC(=O)[C@H](C(C)C)NC(=O)[C@H](CCCNC(=N)N)NC(=O)[C@H](CCSC)NC(=O)[C@H](CCCCN)NC(=O)[C@H](CCC(=O)O)NC(=O)[C@H](C)NC(=O)[C@@H]2CSSC[C@H](NC(=O)[C@H](CCC(=O)O)NC(=O)[C@H](CCC(=O)O)NC(=O)CNC(=O)[C@H](Cc3c[nH]c4ccccc34)NC(=O)[C@H](CO)NC(=O)[C@H](Cc3c[nH]cn3)NC(=O)[C@H](CC(C)C)NC1=O)C(=O)N[C@@H](CCCNC(=N)N)C(=O)N[C@@H](C)C(=O)N2", "note": "[Compound 6] (cyclo(ACAEKMRVAELKQILHSWGEECR); disulfide 2-22)", "values": [
      {"measurement": "potency of macrocyclic peptide versus its linear counterpart", "setting": "[1]", "value": "comparable"},
      {"measurement": "stability in rat hepatocytes as compared to linear counterpart", "setting": "rat hepatocytes", "value": "significantly improved stability"},
      {"measurement": "stability in human hepatocytes as compared to linear counterpart", "setting": "human hepatocytes", "value": "significantly improved stability"}
    ]},
    {"smiles": "CC[C@H](C)[C@@H]1NC(=O)[C@H](CCCCN)NC(=O)[C@H](CCCCN)NC(=O)[C@H](CC(C)C)NC(=O)[C@H](CCC(=O)O)NC(=O)[C@H](CCCCN)NC(=O)[C@H](C(C)C)NC(=O)[C@H](CCCNC(=N)N)NC(=O)[C@H](CC(C)C)NC(=O)[C@H](CCCCN)NC(=O)[C@H](CCC(=O)O)NC(=O)[C@H](C)NC(=O)[C@@H]2CSSC[C@H](NC(=O)[C@H]([C@@H](C)O)NC(=O)[C@H](CCC(=O)O)NC(=O)CNC(=O)[C@H](Cc3c[nH]c4ccccc34)NC(=O)[C@H](CC(=O)O)NC(=O)[C@H](CC(=O)O)NC(=O)[C@H](CC(C)C)NC1=O)C(=O)N[C@@H](CCCCN)C(=O)NCC(=O)N2", "note": "[Compound 8] (cyclo(AEKLRVKELKKILDDWGETCKGC); disulfide 20-23)", "values": [
      {"measurement": "potency of macrocyclic peptide versus its linear counterpart", "setting": "[1]", "value": "comparable"},
      {"measurement": "stability in rat hepatocytes as compared to linear counterpart", "setting": "rat hepatocytes", "value": "significantly improved stability"}
    ]},
    {"smiles": "CC[C@H](C)[C@@H]1NC(=O)[C@H](CO)NC(=O)[C@H](CCCCN)NC(=O)[C@H](CCC(=O)O)NC(=O)[C@H](C)NC(=O)[C@@H]2CSSC[C@H](NC(=O)[C@H]([C@@H](C)O)NC(=O)[C@H](CCC(=O)O)NC(=O)CNC(=O)[C@H](Cc3c[nH]c4ccccc34)NC(=O)[C@H](CC(=O)O)NC(=O)[C@H](CC(=O)O)NC(=O)[C@H](CC(C)C)NC1=O)C(=O)N[C@@H](CCCCN)C(=O)NCC(=O)N2", "note": "[Compound 10, KSILDDWGETCKGCAE] (cyclo(AEKSILDDWGETCKGC); disulfide 13-16)", "values": [
      {"measurement": "potency of macrocyclic peptide versus its linear counterpart", "setting": "[1]", "value": "comparable"},
      {"measurement": "stability in rat hepatocytes as compared to linear counterpart", "setting": "rat hepatocytes", "value": "significantly improved stability"}
    ]},
    {"smiles": "C[C@@H]1NC(=O)[C@@H]2CSSC[C@H](NC(=O)[C@H](CCC(=O)O)NC(=O)[C@H](CCC(=O)O)NC(=O)CNC(=O)[C@H](Cc3c[nH]c4ccccc34)NC(=O)[C@H]([C@@H](C)O)NC(=O)[C@H](CCCCN)NC(=O)[C@H](CCC(=O)O)NC1=O)C(=O)N[C@@H](CCCNC(=N)N)C(=O)N[C@@H](C)C(=O)N2", "note": "[Compound 12, WGEECRACAEKT] (cyclo(ACAEKTWGEECR); disulfide 2-11)", "values": [
      {"measurement": "potency of macrocyclic peptide versus its linear counterpart", "setting": "[1]", "value": "comparable"},
      {"measurement": "stability in rat hepatocytes as compared to linear counterpart", "setting": "rat hepatocytes", "value": "significantly improved stability"},
      {"measurement": "stability in human hepatocytes as compared to linear counterpart", "setting": "human hepatocytes", "value": "significantly improved stability"}
    ]},
    {"smiles": "C[C@@H]1NC(=O)[C@@H]2CSSC[C@H](NC(=O)[C@H]([C@@H](C)O)NC(=O)[C@H](CCC(=O)O)NC(=O)CNC(=O)[C@H](Cc3c[nH]c4ccccc34)NC(=O)[C@H](CO)NC(=O)[C@H](CCCCN)NC(=O)[C@H](CCC(=O)O)NC1=O)C(=O)N[C@@H](CCCCN)C(=O)NCC(=O)N2", "note": "[Compound 14, WGETCKGCAEKS] (cyclo(AEKSWGETCKGC); disulfide 9-12)", "values": [
      {"measurement": "potency of macrocyclic peptide versus its linear counterpart", "setting": "[1]", "value": "comparable"},
      {"measurement": "stability in rat hepatocytes as compared to linear counterpart", "setting": "rat hepatocytes", "value": "significantly improved stability"},
      {"measurement": "stability in human hepatocytes as compared to linear counterpart", "setting": "human hepatocytes", "value": "significantly improved stability"}
    ]}
  ]
}
